Results reported in patent US4540664A, “Method of saccharifying cellulose” (The United States of America as represented by the United …, priority 1983, dated 1985).

Tested on: extracellular cellulase of Clostridium thermocellum ATTC 27405
Experiment: Saccharification of Avicel by desalted cellulase, followed by the decrease in turbidity at 660 nm
Type: biochemical
Details: Avicel substrate
Procedure: In these experiments 50 μg of the protein that had been desalted by passage through the gel filtration resin was incubated with 3 mg of the substrate in 3 ml of substrate buffer. The buffer was 0.1M succinic acid/NaOH with a pH of 5.5. The suspension was diluted to 5 ml. No Ca^2+ was added. The cellulase activity was monitored by the decrease in turbidity of the suspension measured at 660 nm. By this method, the turbidity of the suspension decreases as more cellulose is saccharified, and less light is absorbed.
The reaction conditions were the same as for the samples used in FIG. 1 except that each sample included 5 mM DTT and either no additions, 10 mM EDTA, 7 mM CaCl2, or 7 mM MgCl2.

O[C@H](CS)[C@H](O)CS (racemic) [DTT, dithiothreitol]
effect of DTT on extent and duration of saccharification (2 mM DTT, no Ca2+ added, pH 5.5, compared with no reducing agent (FIG. 1)): saccharification continues over 90 hours and is much more extensive
effect of DTT on rate of saccharification (5 mM DTT, no Ca2+ added, pH 5.5 (FIG. 1)): rate of saccharification is greater

O=C(O)CN(CCN(CC(=O)O)CC(=O)O)CC(=O)O [EDTA]
effect of EDTA on saccharification (10 mM EDTA, 5 mM DTT, 0.1M succinic acid/NaOH pH 5.5 (FIG. 2)): completely inhibits saccharification
